# From patent EP0587396A1, “Use of hypoxoside derivatives for the treatment of viral infections” (VIROSTAT (NA) NV, priority 1992, dated 1994)
# Where two headings read alike, the source gives them in different places.
# Key:
# [1] = system: human immunodeficiency virus type 1 (HIV-1); assay: Inhibition of HIV-1 proliferation in PHA-activated human PBL's (p24 core protein by Sandwich ELISA, HIV RNA by labelled DNA probe hybridization); type: cell-based; settings: for inhibition of p24 core protein production: 10 ng/mℓ
# Experimental: Compounds I - XXVIII were subjected to in vitro testing for inhibition of human immunodeficiency virus type 1 (HIV-1) proliferation as follows:
# Human peripheral blood lymphocytes (PBL's) obtained by density gradient centrifugation of blood from healthy volunteers at a blood bank were pooled and used for the propagation of HIV-1 in vitro.
# The PBL's were polyclonally activated with phytohaemagglutinin (PHA) and subjected to quality controls whereby their viability was tested with Trypan blue exclusion and the expression of activation antigens, CD4⁺ and CD25⁺ was measured by immunofluorescence. Prior to adding the test substance, the activated PBL's were exposed to a standardized titre of HIV-1 virus and after incubation for 60 minutes the cells were washed twice and plated into microtitre plates at a concentration of 2X10⁶ cells/well. The medium contained interleukin-2 and in control wells the virus produced between 50 and 100 ng/mℓ of p24 core protein on day 4. The test substance was added to these cultures either in water or dimethyl sulphoxide (DMSO) depending on solubility characteristics. The final DMSO concentration, when used, was always 1% v/v.
# HIV replication was measured as the production of p24 core protein and the production of HIV RNA on days 2, 3 and 4, or on days 3, 4, 5 and 6. Core protein p24 was measured using 'Sandwich ELISA' technology using inter alia a monoclonal antibody against p24 core protein. The HIV RNA was measured using a specific labelled DNA probe against HIV RNA and the process of hybridization.
# Results were expressed as percent inhibition of HIV-1 p24 core protein production or RNA production on days 3, 4 or 6.
# In each test, cells were also exposed to HIV-1 and 3'-azido-3'-deoxythymidine (also known as Zidovudine or AZT) at 100, 10, 1 and 0.1 ng/mℓ. This was a positive control and compounds tested were compared to the inhibitory effect of 10 ng/mℓ AZT.
# In all of the following Tables, percentage inhibition refers to inhibition of p24 core protein production and HIV RNA production relative to infected controls. Percentage AZT inhibition refers to inhibition caused by 10 ng/mℓ AZT at the end of the experiment, i.e. after 4 or 6 days.
# CD4⁺ cells = settings: standard doses (250 mg/4 hours) and reduced doses (100 mg/4 hours) for 30 months; Fisch et al; cited from earlier work
# [2] = Toxicity: lymphocyte proliferation assay with MTT in the HIV-1 infected PBL cultures; type: cell-based; settings: human, pbls
# Experimental: Possible toxic effects of the test substances were measured by viability testing using Trypan blue or a proliferation assay using3-(4,5-dimethylthiazol-2-yl)-2,5-diphenyl-2H-tetrazolium bromide (MTT) on day 4 or day 6 after initiation of the experiment (Borenfreund et al: Toxicol. In Vitro, 1988, 2, 1-6).
# The toxicity of the drug was expressed as a percentage inhibition of lymphocyte proliferation as measured with MTT and compared with controls receiving the virus but no drug.
smiles,measurement,setting,value
"Cc1cn([C@H]2C[C@H](N=[N+]=[N-])[C@@H](CO)O2)c(=O)[nH]c1=O [AZT, 3'-azido-3'-deoxythymidine, reference compound]",inhibition of p24 core protein production,"[1]; positive control of Table 2 (6 days, standard titre)",20%
same,inhibition of p24 core protein production,[1]; positive control of Table 4 (after 3 days),50%
same,inhibition of p24 core protein production,[1]; positive control of Table 5 (after 6 days),50%
same,inhibition of p24 core protein production,"[1]; positive control of Table 6 (6 days, standard viral titre)",20%
same,inhibition of p24 core protein production,[1]; positive control of Table 8 (3 days incubation),50%
same,inhibition of p24 core protein production,[1]; positive control of Table 12 (3 days incubation),50%
same,inhibition at 0.01 µg/mL,"[1]; Human immunodeficiency virus 1, 72 h, read-out: inhibition of HIV-RNA production, 10 ng/mℓ, positive control of Table 4 (after 3 days)",46%
same,inhibition at 0.01 µg/mL,"[1]; Human immunodeficiency virus 1, 72 h, read-out: inhibition of HIV-RNA production, 10 ng/mℓ, positive control of Table 8 (3 days incubation)",46%
same,inhibition at 0.01 µg/mL,"[1]; Human immunodeficiency virus 1, 72 h, read-out: inhibition of HIV-RNA production, 10 ng/mℓ, positive control of Table 12 (3 days incubation)",46%
same,inhibition at 0.01 µg/mL,"[1]; Human immunodeficiency virus 1, 96 h, read-out: inhibition of HIV RNA production, 10 ng/mℓ, positive control of the crude extract test (4 days)",96%
same,inhibition at 0.01 µg/mL,"[1]; Human immunodeficiency virus 1, 96 h, read-out: inhibition of HIV-RNA production, 10 ng/mℓ, day 4, positive control of Table 13",100%
same,inhibition at 0.01 µg/mL,"[1]; Human immunodeficiency virus 1, 96 h, read-out: inhibition of HIV-RNA production, 10 ng/mℓ, positive control of Table 11 (4 days)",97%
same,inhibition at 0.01 µg/mL,"[1]; Human immunodeficiency virus 1, 144 h, read-out: inhibition of HIV-RNA production, 10 ng/mℓ, day 6, positive control of Table 13",100%
same,inhibition at 0.01 µg/mL,"[1]; Human immunodeficiency virus 1, 144 h, read-out: inhibition of HIV-RNA production, 10 ng/mℓ, positive control of Table 2 (6 days, standard titre)",68%
same,inhibition at 0.01 µg/mL,"[1]; Human immunodeficiency virus 1, 144 h, read-out: inhibition of HIV-RNA production, 10 ng/mℓ, positive control of Table 5 (after 6 days)",46%
same,inhibition at 0.01 µg/mL,"[1]; Human immunodeficiency virus 1, 144 h, read-out: inhibition of HIV-RNA production, 10 ng/mℓ, positive control of Table 6 (6 days, standard viral titre)",68%
same,inhibition at 0.01 µg/mL,"[1]; Human immunodeficiency virus 1, 144 h, read-out: inhibition of HIV-RNA production, 10 ng/mℓ, positive control of Table 8 continued (6 days incubation)",92%
same,inhibition at 0.01 µg/mL,"[1]; Human immunodeficiency virus 1, 144 h, read-out: inhibition of HIV-RNA production, 10 ng/mℓ, positive control of Table 9 (6 days)",92%
same,inhibition at 0.01 µg/mL,"[1]; Human immunodeficiency virus 1, 144 h, read-out: inhibition of HIV-RNA production, 10 ng/mℓ, positive control of Table 10 (6 days)",92%
same,inhibition at 0.01 µg/mL,"[1]; Human immunodeficiency virus 1, read-out: inhibition of HIV-RNA production, 10 ng/mℓ, positive control of Table 7 (ten-fold dilution of standard viral titre)",99%
same,inhibition at 0.01 µg/mL,"[1]; Human immunodeficiency virus 1, read-out: inhibition of HIV-RNA, 10 ng/mℓ, positive control of Table 3 (viral titre lowered ten-fold)",99%
same,transient mean increase of CD4⁺ cells,CD4⁺ cells,25 cells/mm³ of blood
"OC[C@H]1O[C@@H](Oc2ccc(C#CC/C=C/c3ccc(O[C@@H]4O[C@H](CO)[C@@H](O)[C@H](O)[C@H]4O)c(O)c3)cc2O)[C@H](O)[C@@H](O)[C@@H]1O [Compound V, E-1,5-bis(3'-hydroxy-4'-O-β-D-glucopyranosylphenyl)pent-4-en-1-yne]",% inhibition:p24 core protein,"[1]; 6.25 µg/mℓ, dissolved in water, after 6 days, standard titre of HIV-1",5%
same,% inhibition:p24 core protein,"[1]; 12.5 µg/mℓ, dissolved in water, after 6 days, standard titre of HIV-1",5%
same,% inhibition:p24 core protein,"[1]; 25 µg/mℓ, dissolved in water, after 6 days, standard titre of HIV-1",9%
same,% inhibition:p24 core protein,"[1]; 25 µg/ℓ, viral titre lowered ten-fold",90%
same,inhibition at 6.25 µg/mL,"[1]; Human immunodeficiency virus 1, 144 h, read-out: % inhibition: HIV-RNA, 6.25 µg/mℓ, dissolved in water, after 6 days, standard titre of HIV-1",42%
same,inhibition at 12.5 µg/mL,"[1]; Human immunodeficiency virus 1, 144 h, read-out: % inhibition: HIV-RNA, 12.5 µg/mℓ, dissolved in water, after 6 days, standard titre of HIV-1",65%
same,inhibition at 25 µg/mL,"[1]; Human immunodeficiency virus 1, 144 h, read-out: % inhibition: HIV-RNA, 25 µg/mℓ, dissolved in water, after 6 days, standard titre of HIV-1",83%
same,inhibition at 50 µg/mL,"[1]; Human immunodeficiency virus 1, 144 h, read-out: % inhibition: HIV-RNA, 50 µg/mℓ, dissolved in water, after 6 days, standard titre of HIV-1",100%
same,inhibition at 0.00625 µg/mL,"[1]; Human immunodeficiency virus 1, read-out: % inhibition:HIV-RNA, 6.25 µg/ℓ, viral titre lowered ten-fold",0%
same,inhibition at 0.0125 µg/mL,"[1]; Human immunodeficiency virus 1, read-out: % inhibition:HIV-RNA, 12.5 µg/ℓ, viral titre lowered ten-fold",11%
same,inhibition at 0.025 µg/mL,"[1]; Human immunodeficiency virus 1, read-out: % inhibition:HIV-RNA, 25 µg/ℓ, viral titre lowered ten-fold",97%
same,inhibition at 0.05 µg/mL,"[1]; Human immunodeficiency virus 1, read-out: % inhibition:HIV-RNA, 50 µg/ℓ, viral titre lowered ten-fold",99%
same,viability,"[2]; 6.25 µg/mℓ, dissolved in water, standard titre of HIV-1, read-out: Proliferation as a percentage of control value",94%
same,viability,"[2]; 6.25 µg/ℓ, viral titre lowered ten-fold, read-out: Proliferation as a percentage of control value",94%
same,viability,"[2]; 12.5 µg/mℓ, dissolved in water, standard titre of HIV-1, read-out: Proliferation as a percentage of control value",94%
same,viability,"[2]; 12.5 µg/ℓ, viral titre lowered ten-fold, read-out: Proliferation as a percentage of control value",94%
same,viability,"[2]; 25 µg/mℓ, dissolved in water, standard titre of HIV-1, read-out: Proliferation as a percentage of control value",93%
same,viability,"[2]; 25 µg/ℓ, viral titre lowered ten-fold, read-out: Proliferation as a percentage of control value",93%
same,viability,"[2]; 50 µg/mℓ, dissolved in water, standard titre of HIV-1, read-out: Proliferation as a percentage of control value",82%
same,viability,"[2]; 50 µg/ℓ, viral titre lowered ten-fold, read-out: Proliferation as a percentage of control value",82%
O=S(=O)(O)Oc1ccc(C#CC/C=C/c2ccc(OS(=O)(=O)O)cc2)cc1 [Compound XVIII],% inhibition:p24 core protein,"[1]; 50 µg/mℓ, after 6 days",79%
same,inhibition at 50 µg/mL,"[1]; Human immunodeficiency virus 1, 144 h, read-out: % inhibition:HIV-RNA, 50 µg/mℓ, after 6 days",87%
same,inhibition at 100 µg/mL,"[1]; Human immunodeficiency virus 1, 144 h, read-out: % inhibition:HIV-RNA, 100 µg/mℓ, after 6 days",100%
same,viability,"[2]; 50 µg/mℓ, Table 10 (6 days), read-out: Proliferation as a percentage of control value",63%
same,viability,"[2]; 100 µg/mℓ, Table 10 (6 days), read-out: Proliferation as a percentage of control value",50%
